Our source for the IC50 values is patent publication US20170037028A1 (BAYER PHARMA AKTIENGESELLSCHAFT, priority 2013, published 2017).

The structures appear in SMILES notation.

This assay deals with T1, GLUT1 (Homo sapiens, UniProt P11166).
T1 sequence (P11166 1-492): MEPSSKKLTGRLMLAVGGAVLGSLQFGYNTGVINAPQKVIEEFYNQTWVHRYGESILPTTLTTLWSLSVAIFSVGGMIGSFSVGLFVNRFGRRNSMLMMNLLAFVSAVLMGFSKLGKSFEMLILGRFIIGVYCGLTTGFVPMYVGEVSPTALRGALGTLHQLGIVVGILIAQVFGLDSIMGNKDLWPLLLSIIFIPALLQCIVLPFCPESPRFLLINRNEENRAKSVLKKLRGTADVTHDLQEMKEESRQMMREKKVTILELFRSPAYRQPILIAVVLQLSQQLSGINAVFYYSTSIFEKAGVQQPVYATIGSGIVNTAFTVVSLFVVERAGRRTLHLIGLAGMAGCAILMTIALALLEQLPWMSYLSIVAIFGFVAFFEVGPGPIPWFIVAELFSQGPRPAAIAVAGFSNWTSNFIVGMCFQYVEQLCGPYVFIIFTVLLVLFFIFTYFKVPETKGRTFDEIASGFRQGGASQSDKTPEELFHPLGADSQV
Put plainly: Indirect measurement of GLUT1 activity by quantification of intracellular ATP levels (glucose induced ATP increase). Set-up: endogenous in cells; host or cells: DLD1 or CHO-K1. It counts as cell-based. The settings on record: read-out: IC50 regarding glucose induced ATP increase (GLUT1 inhibition). The method in brief: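 DLD1 or CHO-K1 cells were starved overnight in glucose-free medium with 1% FCS, then combined with an oxidative phosphorylation inhibitor. GLUT1 activity was read as glucose-induced ATP increase, GLUT2 as fructose-induced. Intracellular ATP was quantified by CellTiter-Glo luminescence.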
A word on the IC50: it is the concentration that inhibits the measured activity by half. `COc1cccc(Cn2nc(C)c(NC(=O)c3cc(C(N)=O)nc4ccc(Br)cc34)c2C)c1` [Example 1458]: the IC50 is 2.3 nM.

In the case of `COc1cccc(Cn2nc(C)c(NC(=O)c3cc(C(N)=O)nc4cc(F)ccc34)c2C)c1` [Example 1459], the IC50 came out at 9.8 nM.

In the case of `Cc1nn(Cc2ccc(OC(F)(F)F)cc2)c(C)c1NC(=O)c1cc(C(N)=O)nc2ccccc12` [Example 1460], the IC50 was 1.9 nM.

For the molecule `Cc1nn(Cc2ccc(OC(F)(F)F)cc2)c(C)c1NC(=O)c1cc(C(N)=O)nc2cc(F)ccc12` [Example 1461], the IC50 came to 8.7 nM.

For `Cc1nn(Cc2ccc(OC(F)(F)F)cc2)c(C)c1NC(=O)c1cc(C(N)=O)nc2cccc(F)c12` [Example 1462], the IC50 is 2.9 nM.

Take `Cc1nn(Cc2ccc(OC(F)(F)F)cc2)c(C)c1NC(=O)c1cc(C(N)=O)nc2cc(F)c(Cl)cc12` [Example 1463]: the half-inhibitory concentration (IC50) worked out at 4.1 nM.

As for `Cc1nn(Cc2ccc(OC(F)(F)F)cc2)c(C)c1NC(=O)c1cc(C(N)=O)nc2ccc(Br)cc12` [Example 1464], the IC50 amounted to 5.5 nM.

For the molecule `Cc1c(NC(=O)c2cc(C(N)=O)nc3ccccc23)c(C(F)(F)F)nn1Cc1ccc(OC(F)(F)F)cc1` [Example 1465], the IC50 turned out to be 5.1 nM.

Regarding `Cc1c(NC(=O)c2cc(C(N)=O)nc3cc(F)ccc23)c(C(F)(F)F)nn1Cc1ccc(OC(F)(F)F)cc1` [Example 1466], the IC50 amounted to 5.4 nM.

With `Cc1c(NC(=O)c2cc(C(N)=O)nc3cccc(F)c23)c(C(F)(F)F)nn1Cc1ccc(OC(F)(F)F)cc1` [Example 1467], the IC50 amounted to 7.6 nM.

For `Cc1c(NC(=O)c2cc(C(N)=O)nc3cc(F)c(Cl)cc23)c(C(F)(F)F)nn1Cc1ccc(OC(F)(F)F)cc1` [Example 1468], the IC50 turned out to be 12.9 nM.

`Cc1nn(Cc2ccc(F)c(F)c2)c(C)c1NC(=O)c1cc(C(N)=O)nc2ccc(Br)cc12` [Example 1469]: the IC50 was found to be 5.5 nM.

With `Cc1nn(Cc2ccc(F)c(F)c2)c(C)c1NC(=O)c1cc(C(N)=O)nc2cc(F)ccc12` [Example 1470], the half-inhibitory concentration (IC50) worked out at 2.8 nM.

For the molecule `Cc1nn(Cc2ccc(F)c(F)c2)c(C)c1NC(=O)c1cc(C(N)=O)nc2cccc(F)c12` [Example 1471], the IC50 was found to be 12.3 nM.

`Cc1nn(Cc2ccc(F)c(F)c2)c(C)c1NC(=O)c1cc(C(N)=O)nc2cc(F)c(Cl)cc12` [Example 1472]: the IC50 was 0.9 nM.

`Cc1cccc(Cn2nc(C)c(NC(=O)c3cc(C(N)=O)nc4cc(F)c(Cl)cc34)c2C)c1` [Example 1473]: the IC50 came to 5.2 nM.

As to `Cc1cccc(Cn2nc(C)c(NC(=O)c3cc(C(N)=O)nc4cc(F)ccc34)c2C)c1` [Example 1474], the IC50 stood at 2.1 nM.

For the molecule `Cc1cccc(Cn2nc(C)c(NC(=O)c3cc(C(N)=O)nc4cccc(F)c34)c2C)c1` [Example 1475], the half-inhibitory concentration (IC50) is 8.4 nM.

`Cc1cccc(Cn2nc(C)c(NC(=O)c3cc(C(N)=O)nc4cc(F)c(Cl)cc34)c2C)c1` [Example 1476]: the half-maximal inhibitory concentration (IC50) was determined as 2.9 nM.

Regarding `Cc1cccc(Cn2nc(C)c(NC(=O)c3cc(C(N)=O)nc4ccc(Br)cc34)c2C)c1` [Example 1477], the IC50 was 4.3 nM.

Regarding `Cc1cccc(Cn2nc(C(F)(F)F)c(NC(=O)c3cc(C(N)=O)nc4ccccc34)c2C)c1` [Example 1478], the half-inhibitory concentration (IC50) worked out at 6.2 nM.

As to `Cc1cccc(Cn2nc(C(F)(F)F)c(NC(=O)c3cc(C(N)=O)nc4cccc(F)c34)c2C)c1` [Example 1479], the IC50 turned out to be 22.7 nM.

With `Cc1cccc(Cn2nc(C(F)(F)F)c(NC(=O)c3cc(C(N)=O)nc4cc(F)ccc34)c2C)c1` [Example 1480], the IC50 was determined as 10.5 nM.

In the case of `Cc1cccc(Cn2nc(C(F)(F)F)c(NC(=O)c3cc(C(N)=O)nc4cc(F)c(Cl)cc34)c2C)c1` [Example 1481], the IC50 amounted to 5.5 nM.

For the molecule `Cc1cccc(Cn2nc(C(F)(F)F)c(NC(=O)c3cc(C(N)=O)nc4ccc(Br)cc34)c2C)c1` [Example 1482], the IC50 came out at 5.3 nM.

As to `Cc1nn(Cc2ccc(S(C)(=O)=O)cc2)c(C)c1NC(=O)c1cc(C(N)=O)nc2cc(F)ccc12` [Example 1483], the IC50 was 48.8 nM.

`Cc1nn(Cc2ccc(S(C)(=O)=O)cc2)c(C)c1NC(=O)c1cc(C(N)=O)nc2cccc(F)c12` [Example 1484]: the IC50 worked out at 23.4 nM.

As to `Cc1nn(Cc2ccc(S(C)(=O)=O)cc2)c(C)c1NC(=O)c1cc(C(N)=O)nc2cc(F)c(Cl)cc12` [Example 1485], the IC50 was 5.3 nM.

For the molecule `Cc1nn(Cc2ccc(S(C)(=O)=O)cc2)c(C)c1NC(=O)c1cc(C(N)=O)nc2ccc(Br)cc12` [Example 1486], the IC50 was found to be 9.6 nM.

On to `Cc1nn(Cc2ccc(F)cc2F)c(C)c1NC(=O)c1cc(C(N)=O)nc2cc(F)ccc12` [Example 1487], for which the IC50 worked out at 1.2 nM.

For the molecule `Cc1nn(Cc2ccc(F)cc2F)c(C)c1NC(=O)c1cc(C(N)=O)nc2cccc(F)c12` [Example 1488], the IC50 is 6.8 nM.

Regarding `Cc1nn(Cc2ccc(F)cc2F)c(C)c1NC(=O)c1cc(C(N)=O)nc2cc(F)c(Cl)cc12` [Example 1489], the IC50 turned out to be 6 nM.

As to `Cc1nn(Cc2ccc(F)cc2F)c(C)c1NC(=O)c1cc(C(N)=O)nc2ccc(Br)cc12` [Example 1490], the IC50 amounted to 3.7 nM.

Turning to `COc1ccccc1Cn1nc(C(F)(F)F)c(NC(=O)c2cc(C(N)=O)nc3cc(F)c(Cl)cc23)c1C` [Example 1491], the IC50 turned out to be 41.5 nM.

Regarding `COc1ccccc1Cn1nc(C(F)(F)F)c(NC(=O)c2cc(C(N)=O)nc3ccccc23)c1C` [Example 1492], the IC50 turned out to be 113 nM.

On to `COc1ccccc1Cn1nc(C(F)(F)F)c(NC(=O)c2cc(C(N)=O)nc3cccc(F)c23)c1C` [Example 1493], for which the IC50 turned out to be 69.6 nM.

As for `Cc1ccccc1Cn1nc(C(F)(F)F)c(NC(=O)c2cc(C(N)=O)nc3ccccc23)c1C` [Example 1494], the IC50 is 8.3 nM.

On to `Cc1ccccc1Cn1nc(C(F)(F)F)c(NC(=O)c2cc(C(N)=O)nc3cc(F)ccc23)c1C` [Example 1495], for which the IC50 was 7.3 nM.

Take `Cc1ccccc1Cn1nc(C(F)(F)F)c(NC(=O)c2cc(C(N)=O)nc3cccc(F)c23)c1C` [Example 1496]: the IC50 was found to be 6.2 nM.

In the case of `Cc1ccccc1Cn1nc(C(F)(F)F)c(NC(=O)c2cc(C(N)=O)nc3cc(F)c(Cl)cc23)c1C` [Example 1497], the IC50 is 4.3 nM.

`Cc1c(NC(=O)c2cc(C(N)=O)nc3ccc(Br)cc23)c(C(F)(F)F)nn1Cc1ccc(OC(F)(F)F)cc1` [Example 1498]: the IC50 was found to be 8 nM.

Take `CCc1nc(Cn2nc(C)c(NC(=O)c3cc(C(F)(F)F)nc4ccc(Br)cc34)c2C)no1` [Example 1499]: the IC50 came to 13.4 nM.

`CCc1nc(Cn2nc(C)c(NC(=O)c3cc(C(N)=O)nc4ccccc34)c2C)no1` [Example 1500]: the IC50 came out at 20.1 nM.

For the molecule `Cc1nn(Cc2nc(C3CC3)no2)c(C)c1NC(=O)c1cc(C(N)=O)nc2ccccc12` [Example 1501], the IC50 turned out to be 73.7 nM.

Regarding `Cc1nn(Cc2nc(C3CC3)no2)c(C)c1NC(=O)c1cc(C(F)(F)F)nc2ccc(Br)cc12` [Example 1502], the IC50 was determined as 213 nM.

As to `Cc1cc(Cn2nc(C)c(NC(=O)c3cc(C(N)=O)nc4ccccc34)c2C)no1` [Example 1503], the IC50 amounted to 93.2 nM.

Turning to `Cc1nn(Cc2ncco2)c(C)c1NC(=O)c1cc(C(N)=O)nc2ccccc12` [Example 1504], the IC50 was found to be 42.4 nM.

Take `Cc1cc(Cn2nc(C)c(NC(=O)c3cc(C(F)(F)F)nc4ccc(Br)cc34)c2C)no1` [Example 1505]: the IC50 was 323 nM.
